Data set [1] deals with T1, human Y5 receptor (Homo sapiens, UniProt Q15761).
T1 construct: expressed in transfected cells; host or cells: COS-7
Nature of the data set: Human Y5 receptor potency assay (inositol phosphate turnover). It counts as cell-based. The method, then:
(§1) Potency of the test compounds on the human Y2 receptor is determined by performing dose-response experiments in COS-7 cells transiently transfected with the human Y2 receptor as well as a promiscuous G protein, Gqi5 which ensures that the Y2 receptor couples through a Gq pathway leading to an increase in inositol phosphate turnover.
(§2) Cells are washed twice in buffer, 20 mM HEPES, pH 7.4, supplemented with 140 mM NaCl, 5 mM KCl, 1 mM MgSO4, 1 mM CaCl2, 10 mM glucose, 0.05% (w/v) bovine serum; and are incubated in 0.5 ml buffer supplemented with 10 mM LiCl at 37 C for 30 min. After stimulation with various concentrations of peptide for 45 min at 37 C, cells are extracted with 10% ice-cold perchloric acid followed by incubation on ice for 30 min. The resulting supernatants are neutralized with KOH in HEPES buffer, and the generated [3H]-inositol phosphate are purified on Bio-Rad AG 1-X8 anion-exchange resin and counted in a beta counter. Determinations are made in duplicates. EC50 values were calculated using a standard pharmacological data handling software, Prism 3.0 (graphPad Sofware, San Diego, USA).
Protocol as for the Y2 potency assay, except that human Y5-transformed COS-7 cells are used

Data set [2] concerns the target T2, human Y1 receptor (Homo sapiens, UniProt P25929).
T2 construct: expressed in transfected cells; host or cells: COS-7
T2 sequence (P25929 1-384): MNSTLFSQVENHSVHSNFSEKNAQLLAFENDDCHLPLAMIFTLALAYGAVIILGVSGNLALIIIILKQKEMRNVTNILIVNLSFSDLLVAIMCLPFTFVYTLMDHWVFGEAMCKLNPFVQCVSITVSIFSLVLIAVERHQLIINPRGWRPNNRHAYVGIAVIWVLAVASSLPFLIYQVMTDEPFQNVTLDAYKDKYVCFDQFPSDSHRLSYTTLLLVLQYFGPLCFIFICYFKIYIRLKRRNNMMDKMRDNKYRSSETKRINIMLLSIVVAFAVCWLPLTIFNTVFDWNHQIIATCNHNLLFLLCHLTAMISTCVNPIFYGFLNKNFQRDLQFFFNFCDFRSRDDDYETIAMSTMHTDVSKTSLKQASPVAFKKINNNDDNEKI
Nature of the data set: Human Y1 receptor affinity assay (competition binding). The method, then:
(§3) Transfected COS-7 cells are transferred to culture plates one day after transfection at a density of 40×10^3 cells per well aiming at 5-8% binding of the radioactive ligand. […] Determinations are made in duplicate. […] EC50 values were calculated using a standard pharmacological data handling software, Prism 3.0 (graphPad Sofware, San Diego, USA).

The target in data set [3] is T3, human Y2 receptor (Homo sapiens, UniProt P49146).
T3 construct: expressed in transfected cells; host or cells: COS-7
T3 sequence (P49146 1-381): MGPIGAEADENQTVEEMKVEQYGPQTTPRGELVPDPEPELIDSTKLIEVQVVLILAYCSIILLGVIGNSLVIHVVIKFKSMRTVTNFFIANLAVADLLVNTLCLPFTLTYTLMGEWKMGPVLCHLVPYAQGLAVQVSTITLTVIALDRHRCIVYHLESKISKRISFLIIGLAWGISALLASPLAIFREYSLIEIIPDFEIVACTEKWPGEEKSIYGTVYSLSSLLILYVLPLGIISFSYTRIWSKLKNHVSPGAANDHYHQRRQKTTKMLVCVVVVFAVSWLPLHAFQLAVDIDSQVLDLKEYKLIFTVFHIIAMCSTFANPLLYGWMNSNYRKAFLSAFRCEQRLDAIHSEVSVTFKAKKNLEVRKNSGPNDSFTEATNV
Nature of the data set: Human Y2 receptor potency assay (inositol phosphate turnover). The conditions noted are these: Y2 EC50, COS-7 cells with human Y2 and Gqi5, inositol phosphate turnover; Table 2. It counts as cell-based. The method, then: as §1, §2

Data set [4] deals with T3, human Y2 receptor. Nature of the data set: Human Y2 receptor affinity assay (competition binding). The method, then:
as §3

The target of data set [5] is T4, human Y4 receptor (Homo sapiens, UniProt P50391).
T4 construct: expressed in transfected cells; host or cells: COS-7
Nature of the data set: Human Y4 receptor affinity assay (competition binding). The method, then:
as §3

Data set [6] concerns the target T1, human Y5 receptor. The experiment in a line: Human Y5 receptor affinity assay (competition binding). On the procedure:
as §3

The target of data set [7] is T2, human Y1 receptor. Nature of the data set: Human Y1 receptor potency assay (inositol phosphate turnover). It counts as cell-based. The method, then:
as §1, §2
Protocol as for the Y2 potency assay, except that human Y1-transformed COS-7 cells are used.

For data set [8], the target named is T4, human Y4 receptor. The experiment in a line: Human Y4 receptor potency assay (inositol phosphate turnover). It counts as cell-based. The method, then: as §1, §2
Protocol as for the Y2 potency assay, except that human Y4-transformed COS-7 cells are used.

A further data set deals with rats. The conditions noted are these: rat; cited from earlier work.

Positions of bridges follow the written chain, without caps; N, C: chain ends. Non-standard residues stand in square brackets, D forms with d. Residues, ends and D or L forms follow the SMILES beside them. Aoc = NCCCCCCCC(=O)O

T4 sequence (P50391 whole entry): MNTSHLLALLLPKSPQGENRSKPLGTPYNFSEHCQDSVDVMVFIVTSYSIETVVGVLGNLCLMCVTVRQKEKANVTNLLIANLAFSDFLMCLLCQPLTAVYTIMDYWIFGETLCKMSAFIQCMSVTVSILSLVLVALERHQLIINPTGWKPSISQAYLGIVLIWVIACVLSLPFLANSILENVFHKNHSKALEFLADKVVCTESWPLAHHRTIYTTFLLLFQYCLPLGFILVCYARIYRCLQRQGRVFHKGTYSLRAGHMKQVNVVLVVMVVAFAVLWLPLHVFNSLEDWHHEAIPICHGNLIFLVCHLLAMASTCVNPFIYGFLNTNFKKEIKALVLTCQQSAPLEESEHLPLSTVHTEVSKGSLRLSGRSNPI
T1 sequence (Q15761 whole entry): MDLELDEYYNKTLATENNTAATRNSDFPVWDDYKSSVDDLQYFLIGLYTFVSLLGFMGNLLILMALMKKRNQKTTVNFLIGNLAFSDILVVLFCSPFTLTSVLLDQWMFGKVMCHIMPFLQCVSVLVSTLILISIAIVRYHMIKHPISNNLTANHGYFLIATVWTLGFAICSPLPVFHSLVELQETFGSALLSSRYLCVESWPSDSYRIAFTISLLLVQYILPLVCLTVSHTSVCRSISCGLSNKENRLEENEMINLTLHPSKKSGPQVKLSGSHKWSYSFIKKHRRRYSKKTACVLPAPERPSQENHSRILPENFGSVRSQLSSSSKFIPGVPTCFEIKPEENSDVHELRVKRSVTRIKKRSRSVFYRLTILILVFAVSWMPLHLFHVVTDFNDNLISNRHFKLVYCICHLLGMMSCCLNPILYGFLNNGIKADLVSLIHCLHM

At human Y5 receptor [1], `CC(C)C[C@H](NC(=O)[C@H](Cc1ccc(O)cc1)NC(=O)[C@H](Cc1c[nH]cn1)NC(=O)[C@H](CCCNC(=N)N)NC(=O)[C@H](CCCCN)NC(=O)[C@H](CCCCN)NC(=O)[C@H](CCCCN)NC(=O)[C@H](CCCCN)NC(=O)[C@H](CCCCN)NC(=O)[C@@H](N)CCCCN)C(=O)N[C@@H](CC(N)=O)C(=O)N[C@@H](CC(C)C)C(=O)N[C@H](C(=O)N[C@H](C(=O)N[C@@H](CCCNC(=N)N)C(=O)N[C@@H](CCC(N)=O)C(=O)N[C@@H](CCCNC(=N)N)C(=O)N[C@@H](Cc1ccc(O)cc1)C(N)=O)[C@@H](C)O)C(C)C` [SEQ ID NO: 11, Lys-Lys-Lys-Lys-Lys-Lys-PYY25-36] came in with an EC50 of over 1000 nM.

Consider `CC[C@H](C)[C@H](NC(=O)[C@H](Cc1ccc(O)cc1)NC(=O)[C@H](CCCNC(=N)N)NC(=O)[C@H](CCCNC(=N)N)NC(=O)[C@H](CC(C)C)NC(=O)[C@H](CC(=O)O)NC(=O)[C@H](C)NC(=O)[C@H](C)NC(=O)[C@H](Cc1ccc(O)cc1)NC(=O)[C@H](CCC(N)=O)NC(=O)[C@H](C)NC(=O)[C@H](CCSC)NC(=O)[C@H](CCC(N)=O)NC(=O)[C@H](CCC(=O)O)NC(=O)[C@@H]1CCCN1C(=O)[C@@H](NC(=O)[C@H](C)NC(=O)[C@H](CC(N)=O)NC(=O)[C@H](CC(=O)O)NC(=O)CNC(=O)[C@@H]1CCCN1C(=O)[C@H](Cc1ccc(O)cc1)NC(=O)[C@@H](NC(=O)[C@@H]1CCCN1C(=O)[C@H](CCCCN)NC(=O)[C@H](CC(C)C)NC(=O)[C@@H]1CCCN1C(=O)[C@H](C)N)C(C)C)[C@@H](C)O)C(=O)N[C@@H](CC(N)=O)C(=O)N[C@@H](CCSC)C(=O)N[C@@H](CC(C)C)C(=O)N[C@H](C(=O)N[C@@H](CCCNC(=N)N)C(=O)N[C@@H](CCC(N)=O)C(=O)N[C@@H](CCCNC(=N)N)C(=O)N[C@@H](Cc1ccc(O)cc1)C(N)=O)[C@@H](C)O` [SEQ ID NO: 12, [Lys4,Gln34]PP], for which the IC50 on human Y1 receptor [2] is over 1000 nM.

For the compound `CC[C@H](C)[C@@H]1NC(=O)[C@@H](NC(=O)[C@@H](N)Cc2ccc(O)cc2)CSSC[C@H](C(=O)N[C@@H](CC(C)C)C(=O)N[C@@H](CC(N)=O)C(=O)N[C@@H](CC(C)C)C(=O)N[C@H](C(=O)N[C@H](C(=O)N[C@@H](CCCNC(=N)N)C(=O)N[C@@H](CCC(N)=O)C(=O)N[C@@H](CCCNC(=N)N)C(=O)N[C@@H](Cc2ccc(O)cc2)C(N)=O)[C@@H](C)O)C(C)C)NC(=O)[C@H](Cc2c[nH]cn2)NC(=O)[C@H](CCCNC(=N)N)NC(=O)CCCCCCCNC(=O)[C@H](CCCCN)NC1=O` [SEQ ID NO: 16, [Cys2,Aoc5-24,D-Cys27]PYY] (H-YCIK[Aoc]RH[dC]LNLVTRQRY-NH2; disulfide 2-8; N-terminus assumed), the EC50 at human Y2 receptor [3] was 3.7 nM; at human Y5 receptor [1] it was over 1000 nM; at human Y1 receptor [7], over 1000 nM; at human Y4 receptor [8], over 1000 nM. The IC50 at human Y2 receptor [4] was 0.87 nM; at human Y4 receptor [5], 267 nM; at human Y1 receptor [2], over 1000 nM; at human Y5 receptor [6], over 1000 nM. Moreover, the “stimulation of the Y5 receptor” value at human Y5 receptor [1] (at a concentration of 1 μM) is “stimulates neither”. The “stimulation of the Y1 receptor” value at human Y1 receptor [7] (at 1 μM) is given as “does not even at 1 μM stimulate”. On human Y4 receptor [8] (at a concentration of 1 μM), the “stimulation of the Y4 receptor” value is on record as “stimulates neither”.

[Ahx5-24, gamma-Glu2-eps-Lys30]NPY: the “blood pressure increase in vivo” value in the data set on rats is recorded as “not to induce blood pressure increases”.

Values taken from patent publication US20090186811A1, “Y2 Selective Receptor Agonists for Therapeutic Interventions” (priority 2004, published 2009).
